Experimental findings from ChEMBL document CHEMBL4177669 (Bioorg Med Chem Lett, 2017) are described below.

Data set [1] can be described thus: Half life in CD-1 mouse at 3 mg/kg, iv. As to conditions: in vivo. Type of data set: ADME, organism-based.
A short description of data set [2]: Clearance in CD-1 mouse at 3 mg/kg, iv. Type of data set: ADME, organism-based. As to conditions: in vivo.
A short description of data set [3]: AUC in CD-1 mouse at 3 mg/kg, iv. Type of data set: ADME, organism-based. The following applies: in vivo.
Data set [4] can be described thus: Drug metabolism in rat hepatocytes assessed as acyl glucoronidation at 10 […] after 30 to 120 mins by LC-MS analysis. Type of data set: ADME, cell-based, Hepatocyte.
A short description of data set [5]: Drug metabolism in human hepatocytes assessed as acyl glucoronidation at 10 […] after 30 to 120 mins by LC-MS analysis. Type of data set: ADME, cell-based, Hepatocyte.
The nature of data set [6]: Thermodynamic solubility of the compound. Type of data set: physicochemical. The following applies: read-out: Therm_solubility.
Data set [7] in a line: Half life in CD-1 mouse at 1 mg/kg, iv. Type of data set: ADME, organism-based. The following applies: in vivo.
Data set [8] can be described thus: Clearance in CD-1 mouse at 1 mg/kg, iv. Type of data set: ADME, organism-based. As to conditions: in vivo.
Data set [9] in a line: Volume of distribution at steady state in CD-1 mouse at 1 mg/kg, iv. It is filed as ADME, organism-based. As to conditions: in vivo, read-out: Vdss.
Data set [10] in a line: AUC in CD-1 mouse at 1 mg/kg, iv. It is filed as ADME, organism-based. The following applies: in vivo.
Data set [11] is described as follows: Half life in CD-1 mouse at 10 mg/kg, po. Type of data set: ADME, organism-based. As to conditions: in vivo.
The nature of data set [12]: Cmax in CD-1 mouse at 10 mg/kg, po. Type of data set: ADME, organism-based. Also noted: dose 10 mg/kg, route oral. The following applies: in vivo.
Data set [13] is described as follows: AUC in CD-1 mouse at 10 mg/kg, po. Type of data set: ADME, organism-based. As to conditions: in vivo.
Data set [14] in a line: Oral bioavailability in CD-1 mouse at 10 mg/kg. Type of data set: ADME, organism-based. The following applies: in vivo.
The nature of data set [15]: Half life in Wistar rat at 3 mg/kg, iv. Type of data set: ADME, organism-based. As to conditions: in vivo.
Data set [16] is described as follows: Volume of distribution at steady state in Wistar rat at 3 mg/kg, iv. It is filed as ADME, organism-based. As to conditions: in vivo, read-out: Vdss.
Data set [17] in a line: Clearance in Wistar rat at 3 mg/kg, iv. The following applies: in vivo. It is filed as ADME, organism-based.
Data set [18] in a line: AUC in Wistar rat at 3 mg/kg, iv. The following applies: in vivo. It is filed as ADME, organism-based.
Data set [19] can be described thus: Half life in Wistar rat at 10 mg/kg, po. Type of data set: ADME, organism-based. The following applies: in vivo.
Data set [20] in a line: Cmax in Wistar rat at 10 mg/kg, po. Type of data set: ADME, organism-based. Also noted: dose 10 mg/kg, route oral. The following applies: in vivo.
Data set [21] is described as follows: AUC in Wistar rat at 10 mg/kg, po. Type of data set: ADME, organism-based. As to conditions: in vivo.
Data set [22] can be described thus: Oral bioavailability in Wistar rat at 10 mg/kg. As to conditions: in vivo. It is filed as ADME, organism-based.
Data set [23] is described as follows: Half life in cynomolgus monkey at 3 mg/kg, iv. The following applies: in vivo. Type of data set: ADME, organism-based, Macaca fascicularis.
The nature of data set [24]: Clearance in cynomolgus monkey at 3 mg/kg, iv. It is filed as ADME, organism-based, Macaca fascicularis. As to conditions: in vivo.
A short description of data set [25]: Volume of distribution at steady state in cynomolgus monkey at 3 mg/kg, iv. As to conditions: in vivo, read-out: Vdss. Type of data set: ADME, organism-based, Macaca fascicularis.
A short description of data set [26]: AUC in cynomolgus monkey at 3 mg/kg, iv. The following applies: in vivo. Type of data set: ADME, organism-based, Macaca fascicularis.
The nature of data set [27]: Half life in cynomolgus monkey at 10 mg/kg, po. Type of data set: ADME, organism-based, Macaca fascicularis. The following applies: in vivo.
The nature of data set [28]: Cmax in cynomolgus monkey at 10 mg/kg, po. It is filed as ADME, organism-based, Macaca fascicularis. Also noted: dose 10 mg/kg, route oral. The following applies: in vivo.
A short description of data set [29]: AUC in cynomolgus monkey at 10 mg/kg, po. It is filed as ADME, organism-based, Macaca fascicularis. The following applies: in vivo.
Data set [30] can be described thus: Oral bioavailability in cynomolgus monkey at 10 mg/kg. It is filed as ADME, organism-based, Macaca fascicularis. The following applies: in vivo.
Data set [31] can be described thus: Drug metabolism in rat liver microsomes assessed as N-dealkylation. It is filed as ADME, microsome. (In general: Microsomes from liver hold many membrane-bound enzymes, among them those of drug oxidation.)
A short description of data set [32]: Drug metabolism in rat hepatocytes assessed as oxidation.
A short description of data set [33]: Drug metabolism in rat hepatocytes assessed as hydrolysis.

In brackets after ≈: the same amount, converted by molar mass.

Molecule `CC(CCOc1ccccc1CN(C)C(=O)c1ccc(-c2ccco2)cc1)CCC(=O)O` (stereo not drawn) had a half-life in [1] of 1.7 h. The clearance in [2] came out at 4 mL/min/kg. The molecule further displayed an exposure (AUC) in [3] of 11800 ng·h/mL. For the same molecule, the Drug metabolism entry in data set [4] and in data set [5] was “Metabolite_Detected” throughout.
With `C/C(=C\COc1ccccc1CN(C)C(=O)c1ccc(-c2ccco2)cc1)CCC(=O)O`, the half-life in [1] is 2.3 h; in data set [7], 5.8 h; in data set [11], 4.3 h; in data set [15] it was 4.5 h; in [19], 2.5 h; in data set [23], 1.8 h. In [27], the half-life was 1.1 h. The clearance amounted to 15 mL/min/kg in data set [2], 8.4 mL/min/kg in data set [8], 7.2 mL/min/kg in [17] and 8 mL/min/kg in [24]. Moreover, the AUC in data set [3] was 3300 ng·h/mL; in [10], 1980 ng·h/mL; in [13], 16600 ng·h/mL; in data set [18], 4650 ng·h/mL; in data set [21], 12500 ng·h/mL; in data set [26], 6200 ng·h/mL. Moreover, in data set [29], the exposure (AUC) is 6050 ng·h/mL. In addition, in [6], the solubility thermodynamic came out at 190 µM (≈ 82.4 µg/mL). The Vd in [9] amounted to 2.6 L/kg; in data set [16], 0.9 L/kg; in data set [25], 1.3 L/kg. The Cmax in data set [12] came to 11100 ng/mL; in data set [20], 3800 ng/mL; in data set [28] it was 4190 ng/mL. The bioavailability in data set [14] was 84%; in data set [22], 82%; in data set [30], 29%. Besides, the Drug metabolism result in data set [4] and in data set [5] was “Metabolite_Detected” each time.
Take `CC(CCCCOc1ccccc1CN(C)C(=O)c1ccc(-c2ccco2)cc1)C(=O)O` (stereo not drawn): in data set [1], the half-life is 2.8 h. For the same molecule, the clearance in [2] is 3 mL/min/kg. In data set [3], this molecule came in with an AUC of 11400 ng·h/mL. Moreover, the Drug metabolism result in data set [4] and in data set [5] was “Metabolite_Detected” each time.
With `C[C@H](CCCOc1ccccc1CN(C)C(=O)c1ccc(-c2ccco2)cc1)CC(=O)O`, the half-life in [1] is 3.9 h. For the same molecule, the clearance in data set [2] stood at 0.3 mL/min/kg. For the same molecule, the AUC in data set [3] was 77700 ng·h/mL. Besides, the Drug metabolism result in data set [4] and in [5] was “Metabolite_Detected” in each case.
Consider `CN(Cc1ccccc1OCCCCCC(=O)O)C(=O)c1ccc(-c2ccco2)cc1`, for which the half-life in data set [1] was 1.7 h. Also, in data set [2], the clearance worked out at 44 mL/min/kg. This molecule also yielded an AUC in [3] of 1100 ng·h/mL. For the same molecule, the Drug metabolism result in data set [4] and in data set [5] was “Metabolite_Detected” each time.
`C[C@@H](CCCOc1ccccc1CN(C)C(=O)c1ccc(-c2ccco2)cc1)CC(=O)O`: in data set [1], the half-life was 2 h. This molecule showed a clearance in data set [2] of 1.3 mL/min/kg. In addition, the AUC in data set [3] is 30800 ng·h/mL. The Drug metabolism result in data set [4] and in data set [5] was “Metabolite_Detected” each time.
For the molecule `CN(Cc1ccccc1OCCCCC(C)(C)C(=O)O)C(=O)c1ccc(-c2ccco2)cc1`, the half-life in [1] was 4.6 h. In [2], this molecule displayed a clearance of 1.3 mL/min/kg. Also, the AUC in [3] worked out at 48400 ng·h/mL. Moreover, the Drug metabolism entry in data set [4] and in data set [5] was “Metabolite_Detected” in each case.
Regarding `CN(Cc1ccccc1OCCC/C=C/C(=O)O)C(=O)c1ccc(-c2ccco2)cc1`, the half-life in data set [1] is 1.9 h. The same molecule showed a clearance in data set [2] of 67 mL/min/kg. In addition, in [3], the AUC was 750 ng·h/mL. Further, the Drug metabolism result in data set [4] and in data set [5] was “Metabolite_Detected” throughout.
In [1], `C/C(=C\CCCOc1ccccc1CN(C)C(=O)c1ccc(-c2ccco2)cc1)C(=O)O` showed a half-life of 1.2 h. Also, the clearance in [2] stood at 4 mL/min/kg. The AUC in data set [3] was determined as 1300 ng·h/mL. Further, the Drug metabolism result in data set [4] and in [5] was “Metabolite_Detected” throughout.
`C/C(=C\C(=O)O)CCCOc1ccccc1CN(C)C(=O)c1ccc(-c2ccco2)cc1` showed a half-life in data set [1] of 1.6 h. Moreover, the clearance in data set [2] was 11 mL/min/kg. The same molecule came in with an AUC in data set [3] of 4700 ng·h/mL. For the same molecule, the Drug metabolism result in data set [4] and in data set [5] was “Metabolite_Detected” throughout.
In the case of `O=C(O)CCCCCOc1ccccc1CN(C(=O)c1ccc(-c2ccco2)cc1)C1CC1`, the Drug metabolism entry in data set [31], in [32] and in [33] was “Metabolite_Detected” each time.
As to `CN(Cc1ccccc1OCCC[C@@H]1C[C@@H]1C(=O)O)C(=O)c1ccc(-c2ccco2)cc1` (racemic), the half-life in [1] was 2.7 h. The molecule further came in with a clearance in [2] of 1.7 mL/min/kg. The AUC in data set [3] was found to be 30100 ng·h/mL. Further, the Drug metabolism result in data set [4] and in [5] was “Metabolite_Detected” each time.
`CN(Cc1ccccc1OCCC[C@@H]1C[C@H]1C(=O)O)C(=O)c1ccc(-c2ccco2)cc1` (racemic) gave a half-life in data set [1] of 3.5 h. In addition, in data set [2], the clearance was 0.6 mL/min/kg. The molecule further gave an area under the curve (AUC) in [3] of 40500 ng·h/mL. In addition, the Drug metabolism entry in data set [4] and in data set [5] was “Metabolite_Detected” in each case.

For orientation: half-life means how long it takes for the measured level to halve. The clearance is the rate of elimination divided by the concentration. For orientation: AUC means concentration integrated over time. As a reminder, the Cmax is the maximum level reached in the sampled fluid or tissue. As usually defined, the bioavailability is dose-corrected exposure relative to a reference, in per cent.
